The results in this text go back to patent US20220304945A1, “METHODS OF TREATING METABOLIC SYNDROME RELATED CONDITIONS USING RETINOIC ACID RECEPTOR AGONISTS” (Cornell University, priority 2014, published 2022).

Molecules are shown by their SMILES. “Also recorded” adds a separate entry of the source.

Type in all cases: in vivo, mouse
Test [1] can be described thus: Serum triglyceride and cholesterol level measurements, HFD-fed mice (Examples 11-15). The settings on record: mice fed HFD 4 months, drug in drinking water (AC261066 1.5 mg/100 ml). The protocol:
AC261066(Lund et al., Discovery of a potent, orally available, and isoform-selective retinoic acid beta2 receptor agonist. J Med Chem. 2005; 48(24):7517-9) and CD1530 (Thacher et al. Therapeutic applications for ligands of retinoid receptors. Curr Pharm Des. 2000; 6(1):25-58) was dissolved in dimethyl sulfoxide (DMSO) at the concentration of 1.5 mg/ml for AC261066 and 2.5 mg/ml for CD1530, and diluted in the drinking water for mice to the final concentration of 1.5 mg/100 ml and 2.5 mg/100 ml, respectively.
(§1) WT male C57/BL6 male mice were maintained on either a standard laboratory chow-fed diet (Con) with 13% kcal fat, (diet #5053, Lab Diet, Inc, St. Louis, Mo.) or a high fat, western style diet (HFD) with 45% kcals from fat, (diet #58126, Lab Diet, Inc., St. Louis, Mo.) for 4 months. One month after the start of the HFD treatment, the HFD group was further split into 3 groups for 3 months: i) HFD and the drinking water containing 1% DMSO; ii) high fat diet (HFD) and drinking water containing 1.5 mg/100 ml AC261066, a specific RARβ agonist in 1% DMSO or iii) HFD and drinking water containing 1.5 mg/100 ml CD1530, a specific RARγ agonist in 1% DMSO. Then mice were sacrificed by cervical dislocation. Blood and various tissue samples were harvested.
The analysis of serum triglyceride levels was carried out using a bichromatic assay at the Laboratory of Comparative Pathology of the Memorial Sloan-Kettering Cancer Center. Chow-fed diet (Con) n=4; high fat diet (HFD) n=4; high fat diet (HFD)+AC261066 n=4; and high fat diet (HFD)+CD1530, n=4.

Test [2] concerns srebp1-c, fas, dgat1, fgf21, ppar-γ, sirt1, ppar-α, srebp-2, hmgcr, pepck mRNA. The experiment in a line: Q-RT-PCR of hepatic lipogenic, cholesterol and gluconeogenic genes, HFD-fed mice (Example 15). The protocol:
as §1
Total RNA was extracted from mouse tissues using TRIzol reagent (Life technologies) and (1 μg) was used to synthesize cDNA. cDNA synthesis was performed at 42° C. for 1 h in a final volume of 20 μl using qScript (Quanta, MD). Q-RTPCR was performed as previously described (15). Primers for gene expression used were as follows: […]

In test [3] the test system is α-SMA, SREBP1c, MCP-1, TNF-α mRNA. The experiment in a line: Semi-quantitative PCR of liver, HF-fed mice. As to conditions: HF diet mice 4 months. The source says: (§2) Mice, diet, and drug treatment. WT male C57/BL6 male mice were maintained on either a standard laboratory chow-fed diet (CFD) with 13% kcal fat, (diet #5053, Lab Diet, Inc, St. Louis, Mo.) or a high fat, western style diet (HFD) with 60% kcals from fat, (diet #58126, Lab Diet, Inc., St. Louis, Mo.) for 4 months. One month after the start of the high fat diet treatment, the high fat diet group was further split into 2 groups for 3 months: i) high fat diet and the drinking water containing 1% DMSO; ii) high fat diet and the drinking water containing 1.5 mg/100 ml AC261066, a specific RARβ agonist. Then mice were sacrificed by cervical dislocation. Blood and various tissue samples were harvested.
Semi-Quantitate PCR (Liver). Total RNA was extracted from mouse tissues using TRIzol reagent (Life technologies) and (1 μg) was used to synthesize cDNA. cDNA synthesis was performed at 42° C. for 1 h in a final volume of 20 μl using qScript (Quanta, MD). Semi-quantitative PCR were performed Taq DNA polymerase (Invitrogen, CA). Three step PCR was run as follows: 94° C. for 30 s, 58-64° C. for 45 s for primer annealing and 72° C. for 1 min for primer extension. The number of cycles for each primer pair for amplification in the linear range was determined experimentally. PCR products were resolved on 2% agarose gels and visualized by staining with ehtidium bromide. Primers for gene expression used were as follows: […]

Test [4] concerns hepatic stellate cells (HSCs). Description: Hepatic stellate cell activation: α-SMA immunofluorescence of liver, HF-fed mice. The settings on record: HF diet mice 4 months, vs HF-vehicle.
From the text: as §2
(§3) Combined oil red O and Immunofluorescence. Staining. Fresh mouse liver samples were embedded in optimal cutting temperature (OCT) medium and immediately frozen to −70 centigrade. Cryosections were then fixed in 4% formaldehyde for 1 hr at room temp. Slides were then rinsed three times in deionized water (dH2O) for 30 s, followed by treatment with 0.5% Triton X-100 in PBS for 5 min. Sections were then washed three times with PBS for 5 min. Samples were with incubated 2% bovine serum albumin (BSA) for 30 min at room temperature to block for unspecific antibody binding. Following blocking, sections were washed three times in PBS and incubated with mouse monoclonal antibody against α-SMA (1:500) (Dako, Inc) for 24 h at 4° C. After 24 h sections were washed three times in PB and incubated with Alexa-Flour-488 anti-mouse secondary anti-body (1:500) (Invitrogen, Inc) for 30 min at room temperature. Sections were then washed three times in PBS and incubated with working strength oil-red O solution for 30 minutes at room temperature. Sections were then rinsed for 30 minutes under running tap water and cover-slipped with Vectashield hard mount plus DAPI (Vector Labs, Inc).

Another test has as its system HF-fed C57/BL6 mice. The experiment in a line: Hepatic steatosis: H and E and oil red O staining of liver, HF-fed mice. As to conditions: HF diet mice 4 months; vs HF-vehicle.
From the text: as §2
Hematoxylin and Eosin Staining. At sacrifice, fresh mouse liver samples were fixed in 4% formaldehyde solution for 24 hr and embedded in paraffin blocks. Liver paraffin sections were cut 5 microns thick and mounted on glass slides and stained with hematoxylin and eosin (H and E) using standard protocols.
as §3

Consider `CCCCOCCOc1nc(-c2ccc(C(=O)O)c(F)c2)sc1C` [AC261066], for which, in test [1], the serum cholesterol entry was “greatly reduces; also recorded: significantly lower” and the serum triglycerides entry was “greatly reduces; also recorded: significantly lower”. For the same compound, in test [2], the “hepatic gene expression of pepck” value is “not affected”; the “hepatic mRNA levels of lipogenic proteins srebp1-c, fas, dgat1, fgf21, ppar-γ” value was “greatly reduces; also recorded: significantly reduced”; the “hepatic mRNA levels of sirt1 and ppar-α” value is reported as “prevented a large decrease”; the “hepatic mRNA levels of srebp-2 and hmgcr” value is given as “significantly reduced”. Moreover, in test [3], the “hepatic mRNA level of MCP-1” value was “decreases; also recorded: significantly diminish” and the “hepatic mRNA level of TNF-α” value is “decreases”. The “hepatic mRNA level of alpha-SMA” value in test [3] (vs HF-vehicle) is given as “decreased”. For the same compound, the “activation of hepatic stellate cells (α-SMA positive staining in liver)” value (“activation of hepatic stellate cells” for short) in test [4] was “diminished; also recorded: prevent; also recorded: decreased intensity and regions of α-SMA positive staining”. Further, the “activation of hepatic stellate cells” value in test [4] (listed as AC261011) is “decreased”. Further, in the test with HF-fed C57/BL6 mice, the “hepatic lipid accumulation (oil red O)” value was “marked diminished”; the “hepatic steatosis / hepatocyte lipid accumulation (H and E)” value is recorded as “diminished; also recorded: prevent; also recorded: marked decreased”.
`O=C(O)c1ccc(-c2ccc3cc(O)c(C45CC6CC(CC(C6)C4)C5)cc3c2)cc1` [CD1530]: in test [1], the serum cholesterol result is “no decrease” and the serum triglycerides result is “no decrease”. In test [2], the “hepatic gene expression of pepck” value is given as “not affected”; the “hepatic mRNA levels of srebp-2 and hmgcr” value is “not observed”. In test [3], the “hepatic mRNA level of MCP-1” value is listed as “markedly elevated” and the “hepatic mRNA level of TNF-α” value was “markedly elevated”. Moreover, the “hepatic mRNA level of SREBP1-c” value in test [3] (vs control diet) is given as “markedly higher”. The “activation of hepatic stellate cells” value in test [4] is “no evidence decreased”. In the test with HF-fed C57/BL6 mice, the “hepatic lipid accumulation (oil red O)” value is on record as “not observed; also recorded: no evidence decreased”; the “hepatic steatosis / hepatocyte lipid accumulation (H and E)” value was “no decrease”.
